{
  "source": "patent EP0462621A2",
  "about": "“Use of particular compounds for manufacture of pharmaceutical formulations for treatment against various parasites, mycoplasmas, other indications and other infections” (Prendergast, Patrick Thomas, priority 1990, dated 1991)",
  "key": {"[1]": {"tested_on": "L donovani", "assay": "Amastigote-promastigote (AM-PRO) transformation, in-vitro", "type": "cell-based", "conditions": "Ld."}, "[2]": {"tested_on": "L donovani", "assay": "Amastigotes (AM) in mouse or human macrophages (mos), in-vitro", "type": "cell-based", "conditions": "Ld., Amastigote", "description": "(§1) Amastigotes of Leishmania can be cultivated in a wide range of mammalian cells, some of which may be used in in-vitro screens. These include (1) a Sticker dog sarcoma (fibroblast) cell line, (2) transformed rodent macrophage cell lines, (3) primary isolated mouse peritoneal macrophages (MP mo), and (4) human monocyte-derived macrophages (HM mo). The methods are similar for all models. Amastigote or promastigote infected cells are maintained in a medium containing the drug for 4-7 days, at 37 C for L. donovani and 33-35 C for L. major and L. mexicana. Drug activity is then assessed by counting (I) the number of infected host cells and/or (II) the number of amastigotes/100 host cells.\n(§2) In-vitro and in-vivo models were used to test activities of a selection of many compounds. Those activities are summarized in Tables 1-3, showing variation between systems and species. Activities measured in the MP mo and HM mo models have shown the best correlation with results obtained in hamster and mouse models."}, "[3]": {"tested_on": "L major/L mexicana", "assay": "Amastigotes (AM) in mouse or human macrophages (mos), in-vitro", "type": "cell-based", "conditions": "Lm., Amastigote", "description": "as §1, §2"}, "[4]": {"tested_on": "T.b. brucei, T.b. gambiense and T.b. rhodesiense", "assay": "Isolated bloodstream trypomastigote (TRY) in-vitro screen", "type": "cell-based", "experimental": "Primary screening for new trypanocides has made extensive use of rodent systems, in which host survival time is a simple indicator of drug activity. In-vitro screens have used a variety of trypomastigote types (see Table 3, below). […] Most early in-vitro screens employed a short test in which bloodstream trypomastigotes were isolated from an infected rodent and maintained for up to 24 h in a simple drug-containing media. Two significant modifications of this technique include maintaining isolated bloodstream trypomastigotes in drug-containing media for 3-4 hours at 37° C in micro-titre plates and their subsequent viability assessed by the uptake of radiolabelled precursors or motility and infectivity to mice.\nIn-vitro studies on isolated bloodstream trypomastigotes were also used in the rational biochemical approaches towards the chemotherapy of T. brucei infections involving inhibitors of carbohydrate catabolism salicyl hydroxamic acid plus glycerol), of polyamine synthesis (methylgyoxal bis-guanylhydrazone and - DFMO), and of surface coat glycoprotein synthesis (Tunicamycin). In these studies, activity of the compounds are shown in-vitro and in-vivo, whereas the sensitivity of isolated bloodstream trypomastigotes to toxic oxygen radicals generated by naphthoquinones was not shown by the parasites in mice. The activity of the standard anti-trypanosomals-melarsoprol, pentamidine and suramin and tested compounds according to the present invention in in-vitro systems is shown in Table 3.\nas §2"}, "[5]": {"tested_on": "Monocytes", "assay": "Experiment la(f): monocyte spontaneous migration (agarose droplet)", "type": "cell-based, human", "conditions": "for Total Area (mm^2) Migration: Table Ia(f)(ii)", "experimental": "Monocytes from each human donor were incubated for 30 minutes with three different dose levels of compound la in triplicate. These cells were added to agarose and droplets of agarose containing cells were added to small chambers. A chemotaxis agent was added to induce enhanced migration of the mononuclear cells. The detailed assay procedures are described below.\nCell migration patterns of triplicates within 30% of each other were generally accepted.\n• 1. Add 6 ml Phosphate Buffered Saline (PBS) 2X to 7 ml of Percoll. • 2. Add mixture to 15 ml polycarbonate centrifuge tubes (Sorvall ^*03243, 18 x 100 mm, pt. ^*00770 50/box, w/caps). ' • 3. Centrifuge tubes at 21,000 x g for 45 minutes (Sorvall, RC2-B centrifuge w/SS-34 rotor, 34 fixed angle, -15,000 rpm w/Drake off @ 4 C). Percoll gradient is good for two weeks. • 4. Mononuclear cells are separated from whole blood by differential centrifugation using a synthetic separation medium. • 5. Cells are washed 2X with Basal Salt Solution (BSS). • 6. Resuspend cells in BSS + 10% BCS, then add mixture to 50 ml centrifuge tubes containing 30-40 ml of Bovine Calf Serum (BCS) and centrifuge at 400 x g for 10 minutes. • 7. Resuspend cells in BSS without BCS. • 8. Determine viable cell number. • 9. Adjust concentration of cells to […]. • 10. Carefully layer 2 ml of cells on top of Percoll gradient. Centrifuge tubes at 100 x g for 20 minutes at 4°C with brake off. • 11. Monocyte layer is harvested with a pasteur pipet and aliquoted into a 50 ml centrifuge tube. Dead cells are in the top band. Monocytes are about 5 ml above middle gradient. Lymphocytes are about 5 ml below middle gradient. […] Wash cells 3X in BSS without BCS. • 13. Resuspend cells in desired media. • 14. Perform esterase stain on monocyte cell suspension to determine ratio of monocytes. Ratio ranges from 50 - 80%.\n• 1. A 0.4% solution of Agarose (Seakem HE) and distilled H20 is prepared, aliquoted into 1 dram vials, autoclaved and stored at 4° C until used. • 2. A suspension of […] cells in Media 199 2X containing glutamine 2mM, gentamicin 50 µg/ml and bovine calf serum-heat inactivated (56° C, […]) 20%, is combined with an equal amount of 0.4% Agarose. • 3. A 5 µl droplet of cell/agarose mixture is added to the centre of a Sterilin plate (Surrey, England). • 4. A 2 µl droplet of agarose/media mixture is added 3-5mm to one side of the cell/agarose droplet and a 2 µl droplet of agarose/chemo-attractant (N-formyl-L-methionyl-L-Leucyl-L-Phenylalanine 10^-4 M(F-Met-Leu-Phe)) is added 3-5mm to the other side of the cell/agarose droplet. • 5. The droplets are allowed to solidify, after which 0.5 ml of RPMI-1640 containing glutamine 2mM, gentamicin 50, µg/ml and bovine calf serum 10% is added to the well. A cover slip is then placed over the well. • 6. The plate is incubated at 37° C, 5% C02/air humified for approximately 18 hours. • 7. The plate is removed from the incubator and the distance the cells have moved towards the media control and the chemoattractant droplets is traced and measured."}, "[6]": {"tested_on": "cytomegilovirus", "assay": "M413 cells, CMV", "type": "cell-based, cytomegalovirus (CMV)", "experimental": "Confluent monolayers of M413 cells (a type of dipliod human fibroblast cells) in 48 well microtiter plates were used. They were grown in Dulbecco's MEM (minimum essential medium) supplemented with 10% fetal bovine serum and 50 ug/ml gentamicin.\nStock cytomegalovirus (CMV) was diluted in a series of 10-fold dilutions in the above medium, and […] amounts were added to the wells of the microtiter plates and allowed to absorb virus for 90 minutes at 37 °C.\nUnabsorbed virus was removed by aspiration and 0.5 ml of medium containing dilutions of drug was added to duplicate wells at each concentration of virus.\nAfter incubating for 5 days, fresh medium was added to each well, no additional drug being included, and the plates were scored for cytopathic effects the next day. The viruses produce characteristic enlarged rounded cells in a cellular background that is completely devoid of such cells.\nThe data were expressed as the reciprocal of the greatest dilution producing any of the characteristic rounded cells (the \"titer\"), and the percent inhibition was calculated by comparing the experimental titer with the control titer, with intermediate results interpreted as those of Experiment la(a).\nThe procedure described for Experiment la(j) was followed with cytomegalovirus (CMV) substituted for MAB to HSV-1."}},
  "data": [
    {"smiles": "CC(C)=CCNc1ncnc2c1ncn2[C@@H]1O[C@H](CO)[C@@H](O)[C@H]1O", "note": "[IPA, N^6-(Δ^2-isopentenyl) adenosine]", "values": [
      {"measurement": "Activity, AM-PRO transform-ation", "setting": "[1]", "result": "+ +"},
      {"measurement": "Activity, AM in mouse or human mos", "setting": "[2]", "result": "+ +"},
      {"measurement": "Activity, AM in mouse or human mos", "setting": "[3]", "result": "+ +"},
      {"measurement": "activity, isolated bloodstream TRY", "setting": "[4]", "result": "+"},
      {"measurement": "reduction in spontaneous migration", "setting": "[5]; 30 µM", "result": 15, "unit": "%"},
      {"measurement": "spontaneous migration", "setting": "[5]; 0.1 - 0.3 µM", "result": "Enhanced spontaneous migration"},
      {"measurement": "reduction in the ability of the monocytes to spontaneously migrate", "setting": "[5]; 100 - 1000 µM", "result": "22-37%"},
      {"measurement": "Total Area (mm^2) Migration", "setting": "[5]; IPA 5 µM, media 9085", "result": 7952, "unit": "mm^2"},
      {"measurement": "Total Area (mm^2) Migration", "setting": "[5]; IPA 10 µM, media 9085", "result": 6846, "unit": "mm^2"},
      {"measurement": "Total Area (mm^2) Migration", "setting": "[5]; IPA 15 µM, media 9085", "result": 6300, "unit": "mm^2"},
      {"measurement": "Total Area (mm^2) Migration", "setting": "[5]; IPA 20 µM, media 8732", "result": 6804, "unit": "mm^2"},
      {"measurement": "Total Area (mm^2) Migration", "setting": "[5]; IPA 25 µM, media 8732", "result": 6435, "unit": "mm^2"},
      {"measurement": "Total Area (mm^2) Migration", "setting": "[5]; IPA 30 µM, media 8732", "result": 5795, "unit": "mm^2"},
      {"measurement": "levels of cytomegilovirus in cells in-vitro", "setting": "[6]", "result": "reduces"}
    ]}
  ]
}
